Test results published in patent publication US10787423B2, “Piperazine and piperidine derivatives, their synthesis and use thereof in inhibiting VDAC oligomerization, apoptosis and mitochondria dysfunction” (THE NATIONAL INSTITUTE FOR BIOTECHNOLOGY IN THE NEGEV LTD., priority 2015, dated 2020).

Assays:
[1] = tested on: HeLa cells; experiment: Selenite-induced cell death in HeLa cells, PI staining and flow cytometry; format: cell-based; conditions: 22 h with selenite 8 μM and increasing concentrations
Experimental: Cells, e.g. HeLa cells (2×10^5), untreated or treated with apoptosis-inducing reagents, were analyzed for apoptotic cell death using PI, annexin V-FITC and flow cytometer analysis. Cells were collected (1500×g for 10 min), washed, and resuspended in 200 μl binding buffer (10 mM HEPES/NaOH, pH 7.4, 140 mM NaCl, and 2.5 mM CaCl2). Annexin V-FITC was added according to the recommended Protocol (Enzo Life Sciences, Switzerland), and the cells were incubated in the dark for 15 min. Cells were then washed with binding buffer and resuspended in 200 μl binding buffer, to which PI was added immediately before flow cytometry analysis. At least 10,000 events were collected, recorded on a dot plot, and analyzed by the FACSCalibur™ flow cytometer software (BD Biosciences, Franklin Lakes, N.J.).
HeLa cells were incubated with varying concentrations (2-20 μM) of racemic compound of Formula 1 (VBIT-4) and of the enantiomers of compound of Formula 1 (VBIT-4-1 and VBIT-4-2) for 1 hour, and then with or without selenite (25 μM, 3 hours). Cells were harvested and assayed for apoptotic cell death, using PI staining and FACS analysis. The results shown in the FIG. 14b correspond to means±SD (n=3).
Cells (2.5 mg/ml) were washed with and resuspended in PBS, pH 8.3 and incubated with membrane-permeable cross-linker EGS (250 μM) at 30° C. for 15 min and then subjected to SDS-PAGE and immunoblotting using anti-VDAC1 antibodies. Several anti-VDAC1 antibody-labeled protein bands were obtained upon exposure to the apoptosis stimuli that are correspond to VDAC1 dimers, trimers, tetramers and multimers. Cell death as induced by selenite and inhibited by the compound of Formula 3 (VBIT-12) or compound of Formula 11 (DIV00781) is shown (FIG. 21B), with closed circles corresponding to the compound of Formula 3 and open circles corresponding to the compound of Formula 11. Cell death was analyzed using propidium iodide (PI) staining and flow cytometry.

[2] = molecular target: T1, rVDAC1-GFP2 / rVDAC1-Rluc in T-REx-293 cells (Rattus norvegicus, UniProt Q9Z2L0); experiment: BRET2 assay of VDAC1 oligomerization induced by apoptosis inducers (Method A); format: cell-based; conditions: test compound 10 μM, 1 h pre-incubation; for BRET2, % of inhibition, As2O3: As2O3 60 μM (3 h); for BRET2, % of inhibition, STS: STS 1 μM (3 h); for BRET2, % of inhibition, Selenite: selenite 30 μM (3 h)
T1 construct: The rVDAC1 gene was cloned into BamHI and HindIII sites of the BRET2 plasmids (N2 variants); expressed in transfected cells; host or cells: T-REx-293 cells stably expressing hVDAC1-shRNA (T-REx-pS10)
T1 sequence (Q9Z2L0 with tags, fused parts or gaps limits assumed): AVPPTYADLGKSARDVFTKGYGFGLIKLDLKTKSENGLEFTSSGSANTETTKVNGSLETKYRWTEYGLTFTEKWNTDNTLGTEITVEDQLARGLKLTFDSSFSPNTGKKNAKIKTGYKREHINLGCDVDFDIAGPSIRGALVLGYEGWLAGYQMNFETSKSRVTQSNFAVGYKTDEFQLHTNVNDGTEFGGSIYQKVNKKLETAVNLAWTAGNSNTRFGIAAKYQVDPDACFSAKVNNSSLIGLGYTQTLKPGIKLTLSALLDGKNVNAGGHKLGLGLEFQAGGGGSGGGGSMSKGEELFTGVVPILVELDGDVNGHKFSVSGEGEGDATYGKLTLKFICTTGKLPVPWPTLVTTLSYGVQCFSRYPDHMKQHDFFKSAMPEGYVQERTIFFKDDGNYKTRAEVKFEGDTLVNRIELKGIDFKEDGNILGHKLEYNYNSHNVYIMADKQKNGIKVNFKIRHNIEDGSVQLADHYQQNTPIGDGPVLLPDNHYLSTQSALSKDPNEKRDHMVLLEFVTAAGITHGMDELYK
Excerpt: BRET2 screening may be carried out as described in the art ([…] et al., (2010) Oligomerization of the mitochondrial protein voltage-dependent anion channel is coupled to the induction of apoptosis. Mol Cell Biol 30, 5698-5709). Plasmids encoding the fusion proteins rat(r)VDAC1-GFP2 and rVDAC1-luc were constructed using the BRET2 plasmids (Perkin Elmer, Waltham, Mass.). The rVDAC1 gene was cloned into BamHI and HindIII sites of the BRET2 plasmids (N2 variants) and amplified using the forward primer [NT] and the reverse primer [NT]. […] The cells were transfected using calcium phosphate method. Transfections were carried out with 0.2 μg of a plasmid coding for rVDAC1-Rluc and with 0.8 μg of a plasmid coding for rVDAC1-GFP2. As a negative control, cells were transfected with plasmids encoding for rVDAC1-Rluc (0.2 μg DNA) and GFP2 (0.8 μg). In another control (control cells), cells were also transfected with a plasmid encoding for rVDAC1-luc (0.2 μg) and plasmid pcDNA4/TO (0.8 μg). The BRET2 signal represents the ratio of the GFP2 fluorescence, measured at its emission wavelength (510 nm), over the light intensity (luminescence) emitted at 395 nm. All measurements were performed using the Infinite 200 ELISA reader (Tecan). BRET2 signals were defined as GFP2/Rluc intensity ratio and calculated as follows: DNA encoding fusion proteins rVDAC1-Rluc (in which RLuc was connected to rVDAC1 at the C terminal position through a linker (GGGS)) and rVDAC1-GFP2 (in which the GFP2 was fused to the rVDAC1 C terminus) was cloned into BRET2 vectors. rVDAC1-GFP2 and rVDAC1-Rluc were expressed in T-REx-293 cells stably expressing shRNA-hVDAC1 and a low level of endogenous hVDAC1 (referred to as T-REx-pS10 cells) hVDAC1-shRNA, being specific to human VDAC1, allowed the expression of rVDAC1 and decreased the participation of endogenous hVDAC1 in oligomerization, thereby enhancing the BRET2 signal. rVDAC1-GFP2 and rVDAC1-Rluc expression levels were correlated with the amount of plasmids used. […] Following incubation, cells were harvested using trypsin, washed twice with PBS by centrifugation at 1000×g, 5 min, resuspended in 200 μl of PBS and divided between two wells of a 96-well clear-bottom plate (Grenier). […] The screening was conducted using BRET2 assay as described above. […] After treatment, the medium was removed and assayed for BRET2 signals as described above. Liquid handling was done with the Tecan (Männedorf, Switzerland) Freedom 150 Robotic & MCA Liquid Handling System, while luciferase luminescence and fluorescence readings were obtained a robot-integrated Tecan Infinite M1000 reader. Method A was used for screening of VDAC1 oligomerization inhibitors. […] Table 2 provides a summary of BRET2-based screen results of the anti-VDAC1 oligomerization activity of compounds from the NCI library. Results are presented as percent inhibition of the BRET2 signal induced by the indicated pro-apoptotic agent.

Compound | cell death as induced by selenite [1] | BRET2, % of inhibition, As2O3 [2] | BRET2, % of inhibition, STS [2] | BRET2, % of inhibition, Selenite [2]
O=C(O)CN1CN(c2ccccc2)C2(CCN(Cc3cccc4ccccc34)CC2)C1=O [Formula 11] | inhibited | – | – | –
CCOc1ccc(/C=C2\CCc3ccccc3C2=O)cc1 [NSC 252172] | – | 83.1% | 44.1% | 50%
O=C(Oc1ccc(NC(=O)c2cc3c(cc2Br)OCO3)cc1)c1ccccc1 [NSC 268487] | – | 86.7% | 0% | 69.4%
Nc1cc2c3c(cccc3c1)C(=O)N(CCN1CCCC1)C2=O [NSC 308849] | – | 99.5% | 0% | 0%
CCN(CC)Cc1cc2[nH]c3c4ccc(Cl)cc4ncc3c2cc1OC [NSC 317605] | – | 46% | 0.3% | 52%
Cc1ccc(NC(=O)Nc2nc3ccccc3s2)cc1NC(=O)Nc1nc2ccccc2s1 [NSC 319990] | – | 96.2% | 22% | 43.2%
Clc1ccc(-c2nc(-c3cc4cc(Cl)ccc4o3)cs2)cc1 [NSC 321502] | – | 67.3% | 22.4% | 46.5%
O=C(c1cccnc1)c1cc(-c2ccccn2)c(=O)n2ccccc12 [NSC 324623] | – | 78% | 0% | 16.3%
O=C(Nc1ccc(Cl)c([N+](=O)[O-])c1)Nc1nc2ccccc2s1 [NSC 329249] | – | 82.8% | 12.1% | 22.4%
Nc1nc(Nc2ccccc2)n[nH]1 [NSC 331208] | – | 86.4% | 0% | 28.3%
O=C(Nc1ccccc1-c1ccccc1)C(=O)Nc1ccccc1-c1ccccc1 [NSC 338042] | – | 44.7% | 0% | 80.2%
COC(=O)C1(C)Cc2cc(OC(C)=O)c(OC(C)=O)cc2N1 (stereo not shown) [NSC 341956] | – | 51.5% | 0% | 24%
CCOc1cccc(/C=C2\NC(=S)N(c3ccccc3)C2=O)c1O [NSC 343966] | – | 39.4% | 0% | 20.1%
COc1ccc(C2OC3=C(Nc4cc(C)c(C)cc4N3)C2=O)cc1 (stereo not shown) [NSC 372275] | – | 72.5% | 28.5% | 46.5%
O=[N+]([O-])c1ccc(-c2ncc(-c3ccc(Br)cc3)o2)cc1 [NSC 372767] | – | 77.3% | 0% | 26.6%
C=CCNC(=O)c1ccc(OC)cc1 [NSC 404057] | – | 74.6% | 0% | 37.1%
O=C(Nc1ccc(Cl)c(Cl)c1)Nc1ccccc1O [NSC 522131] | – | 86.8% | 0% | 47.6%
O=C(Nc1ccc(Br)c2ccccc12)c1ccc2ccccc2c1O [NSC 601359] | – | 97.7% | 46% | 74.4%
c1ccc2c(c1)[nH]c1c3ccccc3sc21 [NSC 605333] | – | 63.7% | 0% | 16%
CC(=O)N1C=Cc2c(c(C)c3c([nH]c4ccccc43)c2C)C1 [NSC 657149] | – | 88.3% | 0% | 25.3%
CN(C)c1cccc(/C=C(\C#N)c2ccccc2)c1 [NSC 667251] | – | 77.5% | 1.4% | 0%
COC(=NC(C)C)NC(C)C [NSC 672441] | – | 69.6% | 0% | 41.8%
CN(C)c1ccc(N=Nc2cccc3ccoc23)cc1 [NSC 680515] | – | 87.8% | 33.4% | 66.3%
